Source: patent publication US6514951B1, “Pour-on formulations effective for the control of internal and external parasites of homothermic animals” (American Cyanamid Company, priority 1989, dated 2003)

System: gastrointestinal nematodes
Test: Influence of simulated rain on reduction of nematode egg output in feces of cattle after pour-on
Assay type: in vivo, Cooperia, Haemonchus, Ostertagia and Trichostrongylus
Conditions: at all times posttreatment regardless of exposure to simulated rainfall
From the text: The objective of this study is to determine the potential effect of rainfall on the efficacy of a pour-on formulation of 23-(O-methyloxime)-LL-F28249α (0.5% w/v) against gastrointestinal nematodes. Formulation 10 reported in Example 2, above, is employed for the study.
Forty-eight mixed beef breed heifers are ranked according to the average of the day −3 and day −2 fecal nematode egg counts and randomly assigned to the following groups of 6 animals each:
All cattle treated with 23-(O-methyloxime)-LL-F28249α pour-on are treated with 0.5 mg 23-(O-methyloxime)-LL-F28249α per kg of body weight. All animals exposed to simulated rain are sprayed with the equivalent of 1 inch of water for 30 minutes.
Following treatment, cattle are housed in outdoor pens which are partially covered by a three sided shed. Cattle remain outdoors during the entire posttreatment period. However, they are confined to a covered portion of the pen when it is raining or rainfall is imminent. […]
The simulated rainfall apparatus used in this trial consists of a 12 feet×12 feet pen with right angle directional spray nozzles in each corner. It is calculated that 89.75 gallons of water applied to this size pen are the equivalent of 1 inch of rain. […]
Fecal samples are taken from all animals on days 7, 14 and 21 posttreatment to evaluate nematode egg counts. The values are expressed as number of eggs per 1 g of feces.

For `CO/N=C1\C[C@]2(C[C@@H]3CC(C/C=C(\C)C[C@@H](C)/C=C/C=C4\CO[C@@H]5[C@H](O)C(C)=C[C@@H](C(=O)O3)[C@]45O)O2)O[C@H](/C(C)=C/C(C)C)[C@H]1C` [23-(O-methyloxime)-LL-F28249α], the “nematode egg counts (in words)” value was “significantly reduces”.
